Experimental data reported in patent publication US10206394B2, “Herbicidal compounds” (Syngenta Participations AG, priority 2014, dated 2019).
Like-named read-outs stand apart in the source and are kept apart here.

Tests used:
Experiment in all cases: Glasshouse assay for herbicidal activity (pre- and post-emergence), percentage phytotoxicity
Format in all cases: in vivo
[1] = test system: Echinochloa crus-galli (ECHCG); conditions: Echinochloa crus-galli
Description: (§1) Test—Glasshouse Assay for Herbicidal Activity
(§2) Seeds of a variety of monocotyledonous and dicotyledonous test plants are sown in standard soil in pots. The plants are cultivated for one day (for pre-emergence (PRE)) or for about 12 days (for post-emergence (POST)) under controlled conditions in a glasshouse (warm climate species at 24/18° C., cool climate species at 20/16° C., both at day/night; 16 hours light; 65% humidity).
(§3) The test plants are then grown on, in a glasshouse (greenhouse) under controlled conditions (warm climate species at 24/18° C., cool climate species at 20/16° C., both at day/night; 16 hours light; 65% humidity) and are watered twice daily. 15 days after application of the test herbicide (15 DAA) (for post-emergence), and 20 days after application of the test herbicide (20 DAA) (for pre-emergence), the test plants are evaluated visually, and an assessed percentage phytotoxicity score is given for each herbicidal application on each plant species (with 100%=total damage to plant; 0%=no damage to plant).
(§4) The plant species tested are as follows: Alopecurus myosuroides (ALOMY), Avena fatua (AVEFA), Lolium perenne (LOLPE), Echinochloa crus-galli (ECHCG).

Lolium perenne (LOLPE) = conditions: Lolium perenne
Description: as §1, §2, §3, §4

Avena fatua (AVEFA) = conditions: Avena fatua
Description: as §1, §2, §3, §4

[2] = test system: Alopecurus myosuroides (ALOMY); conditions: Alopecurus myosuroides
Description: as §1, §2, §3, §4

[3] = post-emergence, 360 h, post-emergence, 250 g/ha, 15 DAA, visual score (100%=total damage; 0%=no damage), read-out: ECHCG POST herbicidal activity (percentage phytotoxicity)
[4] = pre-emergence, 480 h, pre-emergence, 250 g/ha, 20 DAA, visual score (100%=total damage; 0%=no damage), read-out: ECHCG PRE herbicidal activity (percentage phytotoxicity)
[5] = post-emergence, 360 h, post-emergence, 250 g/ha, 15 DAA, visual score (100%=total damage; 0%=no damage), read-out: LOLPE POST herbicidal activity (percentage phytotoxicity)
[6] = pre-emergence, 480 h, pre-emergence, 250 g/ha, 20 DAA, visual score (100%=total damage; 0%=no damage), read-out: LOLPE PRE herbicidal activity (percentage phytotoxicity)
[7] = post-emergence, 360 h, post-emergence, 250 g/ha, 15 DAA, visual score (100%=total damage; 0%=no damage), read-out: AVEFA POST herbicidal activity (percentage phytotoxicity)
[8] = pre-emergence, 480 h, pre-emergence, 250 g/ha, 20 DAA, visual score (100%=total damage; 0%=no damage), read-out: AVEFA PRE herbicidal activity (percentage phytotoxicity)
[9] = post-emergence, 360 h, post-emergence, 250 g/ha, 15 DAA, visual score (100%=total damage; 0%=no damage), read-out: ALOMY POST herbicidal activity (percentage phytotoxicity)
[10] = pre-emergence, 480 h, pre-emergence, 250 g/ha, 20 DAA, visual score (100%=total damage; 0%=no damage), read-out: ALOMY PRE herbicidal activity (percentage phytotoxicity)

Compound | pest or weed control at 250 g/ha ([1]; post-emergence, 360 h, Rate 250 g/ha, post-emergence, assessed visually 15 DAA, 100%=total damage, 0%=no damage, read-out: Post-emergence herbicidal activity (percentage phytotoxicity) ECHCG POST) [%] | pest or weed control at 250 g/ha ([1]; pre-emergence, 480 h, Rate 250 g/ha, pre-emergence, assessed visually 20 DAA, 100%=total damage, 0%=no damage, read-out: Pre-emergence herbicidal activity (percentage phytotoxicity) ECHCG PRE) [%] | pest or weed control at 250 g/ha (Lolium perenne (LOLPE); post-emergence, 360 h, Rate 250 g/ha, post-emergence, assessed visually 15 DAA, 100%=total damage, 0%=no damage, read-out: Post-emergence herbicidal activity (percentage phytotoxicity) LOLPE POST) [%] | pest or weed control at 250 g/ha (Lolium perenne (LOLPE); pre-emergence, 480 h, Rate 250 g/ha, pre-emergence, assessed visually 20 DAA, 100%=total damage, 0%=no damage, read-out: Pre-emergence herbicidal activity (percentage phytotoxicity) LOLPE PRE) [%] | pest or weed control at 250 g/ha (Avena fatua (AVEFA); post-emergence, 360 h, Rate 250 g/ha, post-emergence, assessed visually 15 DAA, 100%=total damage, 0%=no damage, read-out: Post-emergence herbicidal activity (percentage phytotoxicity) AVEFA POST) [%] | pest or weed control at 250 g/ha (Avena fatua (AVEFA); pre-emergence, 480 h, Rate 250 g/ha, pre-emergence, assessed visually 20 DAA, 100%=total damage, 0%=no damage, read-out: Pre-emergence herbicidal activity (percentage phytotoxicity) AVEFA PRE) [%] | pest or weed control at 250 g/ha ([2]; post-emergence, 360 h, Rate 250 g/ha, post-emergence, assessed visually 15 DAA, 100%=total damage, 0%=no damage, read-out: Post-emergence herbicidal activity (percentage phytotoxicity) ALOMY POST) [%] | pest or weed control at 250 g/ha ([2]; pre-emergence, 480 h, Rate 250 g/ha, pre-emergence, assessed visually 20 DAA, 100%=total damage, 0%=no damage, read-out: Pre-emergence herbicidal activity (percentage phytotoxicity) ALOMY PRE) [%] | pest or weed control at 250 g/ha [1, 3] [%] | pest or weed control at 250 g/ha [1, 4] [%] | pest or weed control at 250 g/ha (Lolium perenne (LOLPE); [5]) [%] | pest or weed control at 250 g/ha (Lolium perenne (LOLPE); [6]) [%] | pest or weed control at 250 g/ha (Avena fatua (AVEFA); [7]) [%] | pest or weed control at 250 g/ha (Avena fatua (AVEFA); [8]) [%] | pest or weed control at 250 g/ha [2, 9] [%] | pest or weed control at 250 g/ha [2, 10] [%]
Cc1cc(C)c(C2C(=O)CC(C(C)C(=O)NCc3ncccc3Cl)C2=O)c(C)c1 (centres unmarked) [Compound A167] | 80 | 80 | 60 | 80 | 70 | 10 | 20 | 20 |  |  |  |  |  |  |  | 
Cc1cc(-c2ncc(Cl)cc2Cl)cc(C)c1C1C(=O)CC(CC(=O)NC(C)(C)C)C1=O (centres unmarked) [Compound A168] |  |  |  |  |  |  |  |  | 100 | 80 | 100 | 80 | 90 | 20 | 90 | 80
CCCN(CC)C(=O)CC1CC(=O)C(c2c(C)cc(C)cc2C)C1=O (centres unmarked) [Compound A171] |  |  |  |  |  |  |  |  | 70 | 80 | 80 | 70 | 70 | 20 | 70 | 60
Cc1cc(C)c(C2C(=O)CC(CC(=O)N3CCC(C)CC3)C2=O)c(C)c1 (centres unmarked) [Compound A172] |  |  |  |  |  |  |  |  | 70 | 80 | 60 | 90 | 70 | 40 | 80 | 80
Cc1cc(C)c(C2C(=O)CC(CC(=O)N3CC(C)CC(C)C3)C2=O)c(C)c1 (centres unmarked) [Compound A173] |  |  |  |  |  |  |  |  | 30 | 10 | 60 | 80 | 30 | 10 | 20 | 50
Cc1cc(C)c(C2C(=O)CC(CC(=O)NCC3CSC3)C2=O)c(C)c1 (centres unmarked) [Compound A174] |  |  |  |  |  |  |  |  | 10 |  | 0 |  | 0 |  | 40 | 
C=CCNC(=O)CC1CC(=O)C(c2c(C)cc(C)cc2C)C1=O (centres unmarked) [Compound A175] |  |  |  |  |  |  |  |  | 90 | 90 | 90 | 100 | 90 | 70 | 80 | 80
COCCCNC(=O)CC1CC(=O)C(c2c(C)cc(C)cc2C)C1=O (centres unmarked) [Compound A176] |  |  |  |  |  |  |  |  | 100 | 100 | 100 | 100 | 90 | 90 | 90 | 90
CCCCCNC(=O)CC1CC(=O)C(c2c(C)cc(C)cc2C)C1=O (centres unmarked) [Compound A177] |  |  |  |  |  |  |  |  | 90 | 90 | 80 | 100 | 80 | 60 | 80 | 100
